Assay results published in PubChem BioAssay AID1996.
Converted amounts (≈) assume the structure as drawn.

Details: buffer; pH 7.4; 200.0 µM

**Q.** Which solubility kinetic does the source give for `COc1ccccc1C(=O)NCCC(=O)Nc1cccnc1` here?
**A.** > 44.9 µg/mL

**Q.** For `O=C(CSc1ccc(-c2ccc(F)cc2)nn1)NCC1CCCO1` (centres undefined), which solubility kinetic is on record?
**A.** > 52.1 µg/mL

**Q.** For `Cc1cc(OCC(=O)N(C)C2CCCCC2)ccc1Cl`, which solubility kinetic is on record?
**A.** 35.5 µg/mL (≈ 120 µM)

**Q.** With `COc1ccccc1S(=O)(=O)Nc1cccc(S(=O)(=O)N2CCCC2)c1` as the compound, how does the solubility kinetic read?
**A.** > 59.5 µg/mL

**Q.** For `O=C(Nc1nc2ccccc2[nH]1)C1CCC1`, which solubility kinetic is on record?
**A.** 6 µg/mL (≈ 27.9 µM)

**Q.** With `Cc1nc(NC(=O)c2ccncc2)sc1C(=O)N(C)C` as the compound, how does the solubility kinetic read?
**A.** > 43.6 µg/mL

**Q.** With `O=C(CCNC(=O)c1ccco1)NCc1ccc(F)cc1` as the compound, how does the solubility kinetic read?
**A.** > 43.5 µg/mL

**Q.** With `Cc1nnc(NC(=O)CN2CC(C)OC(C)C2)s1` (centres undefined) as the compound, how does the solubility kinetic read?
**A.** > 40.6 µg/mL

**Q.** For `O=C(NC1CC1)c1nc(Cn2ccc([N+](=O)[O-])n2)no1`, which solubility kinetic is on record?
**A.** > 41.7 µg/mL

**Q.** For `COc1cccc(C(=O)NCCCNC(=O)c2ccco2)c1`, which solubility kinetic is on record?
**A.** 40.8 µg/mL (≈ 135 µM)

**Q.** Which solubility kinetic does the source give for `O=C(COC(=O)/C=C/c1ccccc1)NCc1cccs1` here?
**A.** 17.7 µg/mL (≈ 58.7 µM)

**Q.** With `CC(C)(C)C(=O)NC1CCSC1=O` (centres undefined) as the compound, how does the solubility kinetic read?
**A.** > 30.2 µg/mL

**Q.** Which solubility kinetic does the source give for `CCOc1ccc(CC(=O)N/N=C(\C)c2cccnc2)cc1` here?
**A.** > 44.6 µg/mL

**Q.** For `O=C(C1CC1)N1CCN(c2ccc(F)cc2)CC1`, which solubility kinetic is on record?
**A.** 34.7 µg/mL (≈ 140 µM)

**Q.** For `COc1ccc(NC(=S)Nc2ccccc2SC)c(OC)c1`, which solubility kinetic is on record?
**A.** 47.5 µg/mL (≈ 142 µM)

**Q.** For `Cn1c(O)c(C=Nc2ccccc2)c(=O)n(C)c1=O`, which solubility kinetic is on record?
**A.** 24 µg/mL (≈ 92.6 µM)

**Q.** For `O=C(COC(=O)c1ccccc1Br)NCCC1=CCCCC1`, which solubility kinetic is on record?
**A.** 22.5 µg/mL (≈ 61.4 µM)

**Q.** Which solubility kinetic does the source give for `CC(OC(=O)c1c[nH]c2ccccc12)C(=O)N1CCCC1` (centres undefined) here?
**A.** > 42.9 µg/mL

**Q.** Which solubility kinetic does the source give for `CC(=O)C1C(c2ccc([N+](=O)[O-])cc2)c2c(noc2C)CC1(C)O` (centres undefined) here?
**A.** > 49.6 µg/mL

**Q.** Which solubility kinetic does the source give for `O=c1[nH]c(/C=C/c2ccc([N+](=O)[O-])cc2)c([N+](=O)[O-])c(=O)[nH]1` here?
**A.** 24.9 µg/mL (≈ 81.8 µM)

**Q.** For `Clc1ccc(OCCn2cnc(Cl)c2Cl)cc1`, which solubility kinetic is on record?
**A.** 21.1 µg/mL (≈ 72.4 µM)

**Q.** For `Cc1ccc2nc(NCCC(=O)O)nc(-c3ccccc3)c2c1`, which solubility kinetic is on record?
**A.** > 46.1 µg/mL

**Q.** With `CCc1cccc(C)c1NC(=O)Cc1ccsc1` as the compound, how does the solubility kinetic read?
**A.** 34.9 µg/mL (≈ 135 µM)

**Q.** With `COc1ccccc1NC(=S)NC1CC2CCC1C2` (centres undefined) as the compound, how does the solubility kinetic read?
**A.** > 41.5 µg/mL

**Q.** For `CC(NCC(O)c1ccc([N+](=O)[O-])cc1)C12CC3CC(CC(C3)C1)C2` (centres undefined), which solubility kinetic is on record?
**A.** 38.3 µg/mL (≈ 111 µM)

**Q.** For `Cc1nc2ccccc2c(=O)n1-c1cc(F)ccc1F`, which solubility kinetic is on record?
**A.** > 40.8 µg/mL

**Q.** Which solubility kinetic does the source give for `CCOc1ccc(NC(=O)COC(=O)CC2CC3CCC2C3)cc1` (centres undefined) here?
**A.** 16.9 µg/mL (≈ 51 µM)

**Q.** Which solubility kinetic does the source give for `COc1ccc(C2=NCC(=S)Nc3ccc(Cl)cc32)cc1OC` here?
**A.** < 0.4 µg/mL

**Q.** For `CC(=O)c1cccc(NC(=O)CNC(=O)Cc2ccccc2)c1`, which solubility kinetic is on record?
**A.** 43.7 µg/mL (≈ 141 µM)

**Q.** With `COc1ccc(NC(=O)N2CCCCCC2)c(OC)c1` as the compound, how does the solubility kinetic read?
**A.** > 41.8 µg/mL

**Q.** Which solubility kinetic does the source give for `Cn1ncc(Cl)c1C(=O)N1CCN(c2ccccc2)CC1` here?
**A.** > 45.7 µg/mL

**Q.** With `CCn1ccnc1CN1CCCC(C(=O)c2ccc(OC)cc2OC)C1` (centres undefined) as the compound, how does the solubility kinetic read?
**A.** 48.7 µg/mL (≈ 136 µM)

**Q.** For `Cc1ccc(NC(=O)CCOc2ccccc2C)cc1C`, which solubility kinetic is on record?
**A.** 1.7 µg/mL (≈ 6 µM)

**Q.** Which solubility kinetic does the source give for `CC(C)CC(NC(=O)C1CCCCC1)C(=O)NC(C)c1ccccc1` (centres undefined) here?
**A.** 24.4 µg/mL (≈ 70.8 µM)

**Q.** Which solubility kinetic does the source give for `CCOc1nc(CC(C)C)c2c(c1C#N)CC(C)(C)OC2` here?
**A.** 2.4 µg/mL (≈ 8.32 µM)

**Q.** Which solubility kinetic does the source give for `Cn1cc(-c2ccccc2C(N)=O)c(=O)c2ccccc21` here?
**A.** > 41.7 µg/mL

**Q.** With `CC(=O)N/C(=N/c1nc(C)cc(C)n1)Nc1ccc(F)cc1F` as the compound, how does the solubility kinetic read?
**A.** 1.6 µg/mL (≈ 5.01 µM)

**Q.** With `CCc1nnc(NC(=O)CCC(=O)NC2CC2)s1` as the compound, how does the solubility kinetic read?
**A.** > 40.2 µg/mL

**Q.** With `COc1ccccc1C(=O)NC(=O)Nc1cccc(Cl)c1` as the compound, how does the solubility kinetic read?
**A.** < 0.3 µg/mL

**Q.** Which solubility kinetic does the source give for `CCOC(=O)CNC(=O)CSc1nc(-c2ccc(OC)cc2)ns1` here?
**A.** 2.8 µg/mL (≈ 7.62 µM)

**Q.** Which solubility kinetic does the source give for `CC(C)c1cc(=O)n2c(nc3ccccc32)[nH]1` here?
**A.** > 34.1 µg/mL

**Q.** With `O=C(O)CCC(=O)Nc1ccc(-c2nc3ccc(C(=O)c4ccccc4)cc3[nH]2)cc1` as the compound, how does the solubility kinetic read?
**A.** 60.1 µg/mL (≈ 145 µM)

**Q.** For `COC(=O)CCC(=O)Nc1nccs1`, which solubility kinetic is on record?
**A.** > 32.1 µg/mL

**Q.** With `COc1ccc(NC(=O)COC(=O)CCSc2ccccc2)cc1OC` as the compound, how does the solubility kinetic read?
**A.** 55.5 µg/mL (≈ 148 µM)
